Data as given in ChEMBL document CHEMBL1201862, “PubChem BioAssay data set” (2004).
Activity calls are given as the source filed them.

What was measured:
[1] = target: Glucose-6-phosphate 1-dehydrogenase (Homo sapiens, UniProt P11413); assay: inhibition of Homo sapiens G6PD, dose series – biochemical, fluorescence, selectivity assay for P. falciparum G6PD inhibitor project, dose response (AID 504792); format: functional
[2] = target: T1, Heat shock factor protein 1 (Mus musculus, UniProt P38532); assay: decrease of HSF1-responsive luciferase luminescence – cell-based, NIH3T3, dose retest, confirmation (AID 2382); format: functional;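 further: NIH3T3 fibroblasts with HSF1-driven luciferase reporter stressed by proteasome inhibitor MG132; luminescence from HSF1-driven luciferase expression after 8 hours of MG132 stress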
T1 sequence (P38532 whole entry): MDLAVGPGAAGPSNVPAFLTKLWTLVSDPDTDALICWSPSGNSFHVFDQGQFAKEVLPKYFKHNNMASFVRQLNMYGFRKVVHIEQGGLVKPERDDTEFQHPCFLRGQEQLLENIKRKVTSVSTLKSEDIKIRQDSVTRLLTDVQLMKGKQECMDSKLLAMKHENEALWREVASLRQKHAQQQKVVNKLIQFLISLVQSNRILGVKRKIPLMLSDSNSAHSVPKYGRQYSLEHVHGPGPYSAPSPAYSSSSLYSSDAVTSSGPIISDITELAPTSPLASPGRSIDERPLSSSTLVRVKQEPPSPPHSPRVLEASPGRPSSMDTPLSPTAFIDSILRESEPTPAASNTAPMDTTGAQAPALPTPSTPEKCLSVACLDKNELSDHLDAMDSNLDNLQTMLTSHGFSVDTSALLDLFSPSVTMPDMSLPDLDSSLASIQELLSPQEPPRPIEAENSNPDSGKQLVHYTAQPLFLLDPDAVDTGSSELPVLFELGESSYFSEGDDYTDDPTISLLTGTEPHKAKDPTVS

[3] = target: T2, Apoptotic protease-activating factor 1 (Homo sapiens, UniProt O14727); format: functional
T2 sequence (O14727 whole entry): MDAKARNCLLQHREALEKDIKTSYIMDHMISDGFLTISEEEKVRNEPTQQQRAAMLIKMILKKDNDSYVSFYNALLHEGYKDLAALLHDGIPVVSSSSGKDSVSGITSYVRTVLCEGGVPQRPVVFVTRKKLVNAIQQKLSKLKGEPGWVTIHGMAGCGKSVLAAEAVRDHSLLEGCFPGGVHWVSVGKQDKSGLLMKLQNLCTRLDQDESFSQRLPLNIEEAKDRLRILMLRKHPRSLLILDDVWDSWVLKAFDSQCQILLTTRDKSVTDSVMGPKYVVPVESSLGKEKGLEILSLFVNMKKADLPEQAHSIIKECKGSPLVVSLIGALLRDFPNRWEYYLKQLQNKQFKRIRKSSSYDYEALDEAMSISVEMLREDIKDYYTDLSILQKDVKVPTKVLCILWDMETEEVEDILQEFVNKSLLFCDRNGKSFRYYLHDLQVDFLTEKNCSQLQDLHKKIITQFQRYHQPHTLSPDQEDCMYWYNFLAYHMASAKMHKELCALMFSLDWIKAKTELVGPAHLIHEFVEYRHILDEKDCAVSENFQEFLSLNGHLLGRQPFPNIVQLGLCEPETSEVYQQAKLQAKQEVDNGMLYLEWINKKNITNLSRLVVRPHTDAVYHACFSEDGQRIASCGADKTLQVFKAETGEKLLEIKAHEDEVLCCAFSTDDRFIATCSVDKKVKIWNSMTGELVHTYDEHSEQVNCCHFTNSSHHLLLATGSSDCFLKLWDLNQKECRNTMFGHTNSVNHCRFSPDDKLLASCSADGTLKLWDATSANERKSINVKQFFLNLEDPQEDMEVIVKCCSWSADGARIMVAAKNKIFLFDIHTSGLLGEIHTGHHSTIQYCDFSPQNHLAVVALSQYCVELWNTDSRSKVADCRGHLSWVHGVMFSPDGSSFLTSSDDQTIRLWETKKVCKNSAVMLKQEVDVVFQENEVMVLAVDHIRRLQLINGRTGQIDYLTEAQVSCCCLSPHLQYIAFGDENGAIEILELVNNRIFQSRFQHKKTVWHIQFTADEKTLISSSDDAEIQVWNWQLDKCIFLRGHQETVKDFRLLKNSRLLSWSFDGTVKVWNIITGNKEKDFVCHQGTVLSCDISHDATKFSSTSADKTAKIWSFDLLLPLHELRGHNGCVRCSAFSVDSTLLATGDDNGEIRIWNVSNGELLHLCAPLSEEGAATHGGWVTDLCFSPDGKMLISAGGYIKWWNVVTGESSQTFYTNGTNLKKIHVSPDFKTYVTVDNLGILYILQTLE

[4] = target: T3, Ubiquitin-conjugating enzyme E2 N (Homo sapiens, UniProt P61088); format: functional;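 further: Dose-response confirmation in a TR-FRET assay detecting UBC13-driven polyubiquitin chain formation, inhibition measured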
T3 sequence (P61088 whole entry): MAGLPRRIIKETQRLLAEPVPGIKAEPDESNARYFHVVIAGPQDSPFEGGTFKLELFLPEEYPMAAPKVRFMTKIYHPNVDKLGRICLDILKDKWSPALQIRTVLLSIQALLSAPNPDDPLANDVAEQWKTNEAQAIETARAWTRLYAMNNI

Vero [5] = assay: cells; format: functional, cell-based; details: Chlorocebus sabaeus
Cytochrome P450 2C9 = Cytochrome P450 2C9 (Homo sapiens, UniProt P11712)
Chain of Cytochrome P450 2C9 (P11712 whole entry): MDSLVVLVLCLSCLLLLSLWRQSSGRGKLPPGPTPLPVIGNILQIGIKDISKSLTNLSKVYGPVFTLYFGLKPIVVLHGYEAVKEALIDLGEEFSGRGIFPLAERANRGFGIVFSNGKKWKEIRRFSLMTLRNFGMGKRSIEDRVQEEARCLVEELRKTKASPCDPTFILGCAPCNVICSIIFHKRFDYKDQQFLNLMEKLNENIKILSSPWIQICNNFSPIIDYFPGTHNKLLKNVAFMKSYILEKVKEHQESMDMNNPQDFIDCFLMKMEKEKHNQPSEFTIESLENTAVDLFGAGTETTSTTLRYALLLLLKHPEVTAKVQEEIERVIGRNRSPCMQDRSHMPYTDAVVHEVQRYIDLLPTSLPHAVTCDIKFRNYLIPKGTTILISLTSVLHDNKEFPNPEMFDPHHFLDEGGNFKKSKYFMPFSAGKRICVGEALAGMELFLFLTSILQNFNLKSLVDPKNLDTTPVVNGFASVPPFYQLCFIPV

Vero [6] = assay: cells; format: functional; details: Chlorocebus sabaeus
HEK293 [7] = assay: cells; details: Homo sapiens
[8] = target: T4, Corticotropin-releasing factor receptor 2/Corticotropin-releasing factor-binding protein (Homo sapiens, UniProt P24387+Q13324); assay: activators of CRF receptor 2 with binding protein – uHTS hits, confirmation (AID 602473); format: functional; details: read-out: EC50_Mean
T4 sequence (Q13324 whole entry): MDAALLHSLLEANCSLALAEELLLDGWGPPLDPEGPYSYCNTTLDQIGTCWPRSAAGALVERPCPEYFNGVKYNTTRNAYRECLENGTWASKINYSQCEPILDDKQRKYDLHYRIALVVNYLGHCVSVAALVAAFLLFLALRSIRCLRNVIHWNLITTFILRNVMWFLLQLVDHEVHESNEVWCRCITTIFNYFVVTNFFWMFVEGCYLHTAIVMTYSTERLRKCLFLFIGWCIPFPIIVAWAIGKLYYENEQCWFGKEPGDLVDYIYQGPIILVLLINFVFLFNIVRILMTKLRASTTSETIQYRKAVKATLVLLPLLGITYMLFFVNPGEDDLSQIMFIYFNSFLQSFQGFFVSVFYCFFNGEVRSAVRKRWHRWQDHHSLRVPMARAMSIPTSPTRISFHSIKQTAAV
T4 sequence (P24387 whole entry): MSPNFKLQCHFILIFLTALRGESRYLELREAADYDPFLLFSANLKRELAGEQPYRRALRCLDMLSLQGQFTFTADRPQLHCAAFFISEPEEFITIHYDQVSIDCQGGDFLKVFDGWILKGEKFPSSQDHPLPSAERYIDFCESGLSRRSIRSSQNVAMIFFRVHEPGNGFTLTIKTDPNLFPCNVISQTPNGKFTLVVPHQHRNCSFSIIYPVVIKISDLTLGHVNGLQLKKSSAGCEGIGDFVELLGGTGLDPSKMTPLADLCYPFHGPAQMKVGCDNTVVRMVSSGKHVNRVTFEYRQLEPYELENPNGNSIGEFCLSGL

Protein RecA = target: T5, Protein RecA (Mycobacterium tuberculosis, UniProt P9WHJ3); assay: Fluorescence Cell-Free Homogeneous Dose Retest to Identify Inhibitors of RecA-Intein Splicing Activity. [Related pubchem assays (depositor defined):AID2097, AID2223, AID489010, AID492950]; format: functional
T5 sequence (P9WHJ3 whole entry): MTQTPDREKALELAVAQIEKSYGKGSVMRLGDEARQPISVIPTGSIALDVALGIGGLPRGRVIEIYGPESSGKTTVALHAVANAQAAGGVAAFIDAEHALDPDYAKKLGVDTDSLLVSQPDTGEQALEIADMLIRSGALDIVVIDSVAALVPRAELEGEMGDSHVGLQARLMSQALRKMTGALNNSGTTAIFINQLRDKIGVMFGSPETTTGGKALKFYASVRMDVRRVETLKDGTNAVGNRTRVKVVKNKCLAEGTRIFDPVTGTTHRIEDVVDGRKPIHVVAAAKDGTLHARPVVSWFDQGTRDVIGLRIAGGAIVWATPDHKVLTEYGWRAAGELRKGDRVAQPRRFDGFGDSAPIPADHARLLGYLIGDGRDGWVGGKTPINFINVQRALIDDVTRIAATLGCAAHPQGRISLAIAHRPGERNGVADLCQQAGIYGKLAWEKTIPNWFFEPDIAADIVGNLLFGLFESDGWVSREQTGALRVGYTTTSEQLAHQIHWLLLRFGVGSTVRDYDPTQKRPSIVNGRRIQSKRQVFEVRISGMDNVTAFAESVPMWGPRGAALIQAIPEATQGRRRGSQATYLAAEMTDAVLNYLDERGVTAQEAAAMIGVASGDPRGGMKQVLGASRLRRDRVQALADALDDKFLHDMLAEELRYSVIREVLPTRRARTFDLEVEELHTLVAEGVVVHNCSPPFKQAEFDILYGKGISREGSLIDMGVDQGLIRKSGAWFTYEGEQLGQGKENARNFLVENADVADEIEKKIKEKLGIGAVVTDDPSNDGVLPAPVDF

[9] = target: T6, Replicative DNA helicase DnaB (Mycobacterium tuberculosis, UniProt P9WMR3); assay: DnaB intein splicing inhibitors, dose response, biochemical, cell-free fluorescence (AID 449749); format: functional
T6 sequence (P9WMR3 whole entry): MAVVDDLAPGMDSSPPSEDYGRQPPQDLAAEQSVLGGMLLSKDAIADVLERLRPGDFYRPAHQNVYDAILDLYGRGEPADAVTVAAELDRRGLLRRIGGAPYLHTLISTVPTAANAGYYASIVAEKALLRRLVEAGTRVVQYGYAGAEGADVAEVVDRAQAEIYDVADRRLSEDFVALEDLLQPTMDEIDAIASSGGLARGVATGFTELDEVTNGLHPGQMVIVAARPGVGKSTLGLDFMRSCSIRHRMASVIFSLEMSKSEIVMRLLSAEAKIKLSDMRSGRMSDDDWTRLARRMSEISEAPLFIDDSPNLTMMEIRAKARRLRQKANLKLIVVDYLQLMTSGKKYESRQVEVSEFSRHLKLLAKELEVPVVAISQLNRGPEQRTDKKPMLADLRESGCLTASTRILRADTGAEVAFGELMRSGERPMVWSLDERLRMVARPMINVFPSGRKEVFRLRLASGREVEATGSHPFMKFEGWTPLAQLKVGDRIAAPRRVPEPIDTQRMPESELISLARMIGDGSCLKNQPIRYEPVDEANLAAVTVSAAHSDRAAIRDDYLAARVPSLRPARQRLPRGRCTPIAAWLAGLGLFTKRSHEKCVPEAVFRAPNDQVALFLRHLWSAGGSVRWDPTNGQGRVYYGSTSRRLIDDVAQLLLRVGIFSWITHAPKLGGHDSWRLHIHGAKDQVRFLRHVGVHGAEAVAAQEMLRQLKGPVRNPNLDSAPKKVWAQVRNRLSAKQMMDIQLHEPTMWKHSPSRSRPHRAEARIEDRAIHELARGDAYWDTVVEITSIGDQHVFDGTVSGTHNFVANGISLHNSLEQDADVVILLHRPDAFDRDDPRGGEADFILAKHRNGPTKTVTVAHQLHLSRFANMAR

HEK293 [10] = assay: cells; details: Homo sapiens; remark: listed apart in the source
[11] = target: T4, Corticotropin-releasing factor receptor 2/Corticotropin-releasing factor-binding protein; assay: Dose Response confirmation of uHTS hits for small molecule antagonists of the CRF-binding protein and CRF-R2 receptor complex.; format: functional; details: read-out: IC50_Mean
[12] = microbe, parasite or virus in culture; format: functional; details: Mycobacterium tuberculosis
[13] = HGIII-sPLA2 enzyme inhibition potency – biochemical, QFRET, IC50, dose response (AID 743457);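 further: green fluorescence rise as the enzyme cleaves BODIPY PC-A2 in liposomes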
[14] = target: SWI/SNF-related matrix-associated actin-dependent regulator of chromatin subfamily A member 2 (Homo sapiens, UniProt P51531); assay: Luminescence-based cell-based high throughput dose response assay to identify activators of the function of SWI/SNF related, matrix associated, actin dependent regulator of chromatin, subfamily a, member 2 (SMARCA2, BRM).; format: functional
Chain of SWI/SNF-related matrix-associated actin-dependent regulator of chromatin subfamily A member 2 (P51531 whole entry): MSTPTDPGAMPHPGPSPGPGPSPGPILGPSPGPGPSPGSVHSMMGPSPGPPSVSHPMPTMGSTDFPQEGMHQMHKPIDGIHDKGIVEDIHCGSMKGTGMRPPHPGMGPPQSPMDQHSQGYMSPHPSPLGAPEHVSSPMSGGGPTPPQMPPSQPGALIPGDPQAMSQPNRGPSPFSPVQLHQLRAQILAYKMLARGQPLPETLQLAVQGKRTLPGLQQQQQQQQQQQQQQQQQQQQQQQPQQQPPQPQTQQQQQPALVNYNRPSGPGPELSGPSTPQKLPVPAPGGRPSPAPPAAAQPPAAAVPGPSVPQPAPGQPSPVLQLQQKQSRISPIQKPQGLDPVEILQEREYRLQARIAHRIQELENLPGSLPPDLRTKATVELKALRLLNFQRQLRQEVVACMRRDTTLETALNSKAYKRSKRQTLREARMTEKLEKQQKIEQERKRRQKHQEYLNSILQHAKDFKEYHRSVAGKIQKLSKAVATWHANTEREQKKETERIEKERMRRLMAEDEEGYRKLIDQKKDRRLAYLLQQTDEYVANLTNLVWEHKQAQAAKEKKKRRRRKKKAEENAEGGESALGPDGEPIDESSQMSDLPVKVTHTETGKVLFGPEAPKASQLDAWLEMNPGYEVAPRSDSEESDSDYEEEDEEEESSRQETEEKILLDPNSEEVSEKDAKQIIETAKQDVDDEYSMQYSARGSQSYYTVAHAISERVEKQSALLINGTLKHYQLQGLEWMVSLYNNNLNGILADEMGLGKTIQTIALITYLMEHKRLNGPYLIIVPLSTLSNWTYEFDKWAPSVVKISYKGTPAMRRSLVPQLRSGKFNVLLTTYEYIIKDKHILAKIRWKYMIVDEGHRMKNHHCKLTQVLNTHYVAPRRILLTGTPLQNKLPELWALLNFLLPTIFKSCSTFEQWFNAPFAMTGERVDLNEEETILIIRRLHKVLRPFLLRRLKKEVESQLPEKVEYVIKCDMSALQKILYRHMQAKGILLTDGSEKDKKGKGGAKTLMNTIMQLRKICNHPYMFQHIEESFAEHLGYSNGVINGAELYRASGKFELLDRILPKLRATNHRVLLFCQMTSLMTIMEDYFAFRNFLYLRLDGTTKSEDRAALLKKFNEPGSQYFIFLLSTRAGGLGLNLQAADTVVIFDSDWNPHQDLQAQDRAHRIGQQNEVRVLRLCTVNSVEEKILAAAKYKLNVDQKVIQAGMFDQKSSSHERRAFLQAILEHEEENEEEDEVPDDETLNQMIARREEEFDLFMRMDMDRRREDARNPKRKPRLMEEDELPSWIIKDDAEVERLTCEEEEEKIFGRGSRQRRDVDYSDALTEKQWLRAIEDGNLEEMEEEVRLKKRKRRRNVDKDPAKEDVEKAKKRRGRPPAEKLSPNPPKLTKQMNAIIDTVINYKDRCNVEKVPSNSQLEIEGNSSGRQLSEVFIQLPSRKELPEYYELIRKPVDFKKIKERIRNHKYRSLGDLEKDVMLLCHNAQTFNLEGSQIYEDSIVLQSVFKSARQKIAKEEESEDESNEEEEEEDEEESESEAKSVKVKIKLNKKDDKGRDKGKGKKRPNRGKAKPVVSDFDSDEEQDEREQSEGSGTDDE

[15] = Counterscreen for activators of the function of SWI/SNF related, matrix associated, actin dependent regulator of chromatin, subfamily a, member 2 (SMARCA2, BRM): Luminescence-based cell-based high throughput dose response assay to identify non-selective compounds using the VP16 reporter assay.; format: functional
[16] = target: Heat shock protein HSP 90-alpha (Homo sapiens, UniProt P07900); format: functional, organism-based

Chain of Glucose-6-phosphate 1-dehydrogenase (P11413 whole entry): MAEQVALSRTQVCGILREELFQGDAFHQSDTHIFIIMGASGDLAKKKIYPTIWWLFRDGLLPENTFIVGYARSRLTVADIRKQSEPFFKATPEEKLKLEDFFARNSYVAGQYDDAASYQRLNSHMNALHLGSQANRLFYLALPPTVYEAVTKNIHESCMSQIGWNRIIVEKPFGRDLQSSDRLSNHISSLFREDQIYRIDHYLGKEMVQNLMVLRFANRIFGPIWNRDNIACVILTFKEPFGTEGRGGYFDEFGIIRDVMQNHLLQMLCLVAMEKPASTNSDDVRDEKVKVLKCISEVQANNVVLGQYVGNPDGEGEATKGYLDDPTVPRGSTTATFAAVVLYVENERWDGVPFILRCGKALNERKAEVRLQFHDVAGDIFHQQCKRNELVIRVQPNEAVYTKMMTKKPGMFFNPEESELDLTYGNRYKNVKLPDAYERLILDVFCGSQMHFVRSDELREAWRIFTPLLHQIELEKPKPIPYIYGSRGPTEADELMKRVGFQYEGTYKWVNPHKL

Nc1c(C(=O)Nc2ccc(F)cc2)sc(=S)n1-c1ccccc1F
IC50 [1]: > 80 µM (inactive)

O=C(Nc1nnc(S(=O)(=O)N2CCCCCC2)s1)c1cccc(Br)c1
IC50 [1]: 78.9 µM (inactive)
EC50 [2]: > 195 µM (not active)

COc1ccc(C(CNC(=O)COc2c(C)cc(C)cc2C)N2CCOCC2)cc1 (stereo unspecified)
IC50 [3]: > 100 µM (inactive)
IC50 [4]: > 20 µM (inactive)

O=C(Oc1ccc2ccccc2c1Br)N1CCCCCC1
IC50 (Vero [5]): 4.26 µM (active)
AC50 (Cytochrome P450 2C9): 25.1 µM (inconclusive)
CC50 (Vero [6]): > 25 µM (active)

Cc1oc2c(c1C(=O)O)C(=O)c1ccccc1C2=O
IC50 [3]: 11.4 µM (active)

COC(=O)CN1C(c2ccc(Cl)cc2)=Nc2ccc(Cl)cc2C1c1ccccc1 (stereo unspecified)
EC50 (HEK293 [7]): > 59.6 µM (inactive)
EC50 [8]: > 53 µM (inactive)
EC50 (Protein RecA): 55.9 µM (inconclusive)
AC50 [9]: 4.24 µM (active)
EC50 (HEK293 [10]): > 59.6 µM (inactive)
IC50 [11]: > 47.1 µM (inactive)
CC50 [12]: > 40 µM (active)

Cc1ccc2nc(NNC(=O)c3ccc4c(c3)OCCO4)sc2c1
IC50 [13]: > 122 µM (inactive)

N#C/C(=C/c1cccs1)c1nc2ccccc2[nH]1
EC50 [14]: > 91.1 µM (inactive)
EC50 [15]: > 91.1 µM (inactive)

O=C1CCCCC1Nc1ccc2ccccc2c1 (stereo unspecified)
IC50 (Vero [5]): > 12.5 µM (active)

O=C(CCCc1ccccc1)NCc1ccccc1
EC50 [14]: > 91.3 µM (inactive)
EC50 [15]: > 91.3 µM (inactive)

O=C(Nc1nc(-c2cccc(Br)c2)cs1)Oc1ccccc1
EC50 [14]: > 91.2 µM (inactive)
EC50 [15]: > 91.2 µM (inactive)

CC(C)N1CCN(c2ccc(OC[C@H]3CO[C@](Cn4cncn4)(c4ccc(Cl)cc4Cl)O3)cc2)CC1 [TERCONAZOLE]
AC50 [16]: 1.41 µM (active)
CC50 (Vero [6]): 22.1 µM (active)
